Test results taken from patent publication US9783532B2, “Molecules having certain pesticidal utilities, and intermediates, compositions, and processes related thereto” (Dow AgroSciences LLC, priority 2013, dated 2017).
Where two headings read alike, the source gives them in different places.

What was measured:
[1] = test system: Beet Armyworm (Spodoptera exigua) ("BAW"); experiment: Bioassay on beet armyworm (BAW), 128-well diet tray assay; assay type: in vivo; details: for mortality at 50 µg/cm2: 168 h, 50 μg/cm^2 on artificial diet, second instar BAW larvae, 25° C., five to seven days, average of eight wells, read-out: BAW % Control (or Mortality) rating; for pest or weed control at 50 µg/cm2: activity rating class, read-out: BAW (Biological Results, Insect species)
Procedure: (§1) Certain molecules disclosed in this document were tested against BAW and CEW using procedures described in the following examples. In the reporting of the results, the “BAW & CL Rating Table” was used (See Table Section). BIOASSAYS ON BAW
Bioassays on BAW were conducted using a 128-well diet tray assay. one to five second instar BAW larvae were placed in each well (3 mL) of the diet tray that had been previously filled with 1 mL of artificial diet to which 50 μg/cm^2 of the test compound (dissolved in 50 μL of 90:10 acetone-water mixture) had been applied (to each of eight wells) and then allowed to dry. Trays were covered with a clear self-adhesive cover and held at 25° C., 14:10 light-dark for five to seven days. Percent mortality was recorded for the larvae in each well; activity in the eight wells was then averaged. The results are indicated in the table entitled “Table ABC: Biological Results” (See Table Section).

[2] = test system: Cabbage Looper (Trichoplusia ni) ("CL"); experiment: Bioassay on cabbage looper (CL), 128-well diet tray assay; assay type: in vivo; details: for mortality at 50 µg/cm2: 168 h, 50 μg/cm^2 on artificial diet, second instar CL larvae, 25° C., five to seven days, average of eight wells, read-out: CL % Control (or Mortality) rating; for pest or weed control at 50 µg/cm2: activity rating class, read-out: CL (Biological Results, Insect species)
Procedure: as §1
Bioassays on CL were conducted using a 128-well diet tray assay. one to five second instar CL larvae were placed in each well (3 mL) of the diet tray that had been previously filled with 1 mL of artificial diet to which 50 μg/cm^2 of the test compound (dissolved in 50 μL of 90:10 acetone-water mixture) had been applied (to each of eight wells) and then allowed to dry. Trays were covered with a clear self-adhesive cover and held at 25° C., 14:10 light-dark for five to seven days. Percent mortality was recorded for the larvae in each well; activity in the eight wells was then averaged. The results are indicated in the table entitled “Table ABC: Biological Results” (See Table Section).

Structure (SMILES) | mortality at 50 µg/cm2 [1] | mortality at 50 µg/cm2 [2] | pest or weed control at 50 µg/cm2 ([2]; Table ABC (FB)) | other results
CC(Cc1ccc(-c2ncn(-c3ccc(OC(F)(F)F)cc3)n2)cc1)NC(=O)NC(=S)Nc1ccccc1C(C)C (stereo not drawn) [F4, N-[2-(propan-2-yl)phenyl]-N′-[1-(4-{1-[4-(trifluoromethoxy)phenyl]-1H-1,2,4-triazol-3-yl}phenyl)propan-2-yl]dicarbonimidothioic diamide] | 50 to 100% | 50 to 100% |  | 
CC(C)c1ccccc1NC(=S)NC(=O)NCc1ccc(-c2ncn(-c3ccc(OC(F)(F)C(F)(F)F)cc3)n2)cc1 [F15, N-(4-{1-[4-(pentafluoroethoxy)phenyl]-1H-1,2,4-triazol-3-yl}benzyl)-N′-[2-(propan-2-yl)phenyl]dicarbonimidothioic diamide] | 50 to 100% | 50 to 100% |  | 
Cc1ccc(C(C)C)c(NC(=S)NC(=O)NCc2ccc(-c3ncn(-c4ccc(OC(F)(F)C(F)(F)F)cc4)n3)cc2)c1 [F16] | 50 to 100% | 50 to 100% |  | 
CC(C)c1ccccc1N1C(=O)CS/C1=N\C(=O)NCc1ccc(-c2ncn(-c3ccc(OC(F)(F)F)cc3)n2)cc1 [F17, (Z)-1-(3-(2-isopropylphenyl)-4-oxothiazolidin-2-ylidene)-3-(4-(1-(4-(trifluoromethoxy)phenyl)-1H-1,2,4-triazol-3-yl)benzyl)urea] | 50 to 100% | 50 to 100% |  | 
CC(C)c1ccccc1N1C(=O)CS/C1=N\C(=O)NCc1ccc(-c2ncn(-c3ccc(OC(F)(F)C(F)(F)F)cc3)n2)cc1 [F18, (Z)-1-(3-(2-isopropylphenyl)-4-oxothiazolidin-2-ylidene)-3-(4-(1-(4-(perfluoroethoxy)phenyl)-1H-1,2,4-triazol-3-yl)benzyl)urea] | 50 to 100% | 50 to 100% |  | 
Cc1ccc(C(C)C)c(N2C(=O)CS/C2=N\C(=O)NCc2ccc(-c3ncn(-c4ccc(OC(F)(F)C(F)(F)F)cc4)n3)cc2)c1 [F19, (Z)-1-(3-(2-isopropyl-5-methylphenyl)-4-oxothiazolidin-2-ylidene)-3-(4-(1-(4-(perfluoroethoxy)phenyl)-1H-1,2,4-triazol-3-yl)benzyl)urea] | 50 to 100% | 50 to 100% |  | 
COc1ccc(NC(=S)NC(=O)NC2CC2c2ccc(-c3ncn(-c4ccc(OC(F)(F)F)cc4)n3)cc2)c(C)c1 (stereo not drawn) [F26] | 50 to 100% | 50 to 100% |  | 
Cc1ccc(C(C)C)c(NC(=S)NC(=O)NCc2ccc(-c3ncn(-c4ccc(OC(F)(F)F)cc4)n3)cc2)c1 [F35] | 50 to 100% |  |  | 
Cc1ccc(C(C)C)c(NC(=S)NC(=O)NCCc2ccc(-c3ncn(-c4ccc(OC(F)(F)F)cc4)n3)cc2C)c1 [FB1, 1-[(2-isopropyl-5-methyl-phenyl)carbamothioyl]-3-[2-[2-methyl-4-[1-[4-(trifluoromethoxy)phenyl]-1H-1,2,4-triazol-3-yl]phenyl]ethyl]urea] |  |  | 50 to 100% | pest or weed control at 50 µg/cm2 ([1]; Table ABC (FB)): 50 to 100%
COc1ccc(C(C)C)c(NC(=S)NC(=O)NCCc2ccc(-c3ncn(-c4ccc(OC(F)(F)F)cc4)n3)cc2C)c1 [FB2] |  |  | 50 to 100% | pest or weed control at 50 µg/cm2 ([1]; Table ABC (FB)): 50 to 100%
Cc1ccc(C(C)C)c(N2C(=O)CS/C2=N\C(=O)NCCc2ccc(-c3ncn(-c4ccc(OC(F)(F)F)cc4)n3)cc2C)c1 [FB3, (Z)-1-(3-(2-isopropyl-5-methylphenyl)-4-oxothiazolidin-2-ylidene)-3-(2-methyl-4-(1-(4-(trifluoromethoxy)phenyl)-1H-1,2,4-triazol-3-yl)phenethyl)urea] |  |  | 50 to 100% | pest or weed control at 50 µg/cm2 ([1]; Table ABC (FB)): 50 to 100%
COc1ccc(C(C)C)c(N2C(=O)CS/C2=N\C(=O)NCCc2ccc(-c3ncn(-c4ccc(OC(F)(F)F)cc4)n3)cc2C)c1 [FB4, (Z)-1-(3-(2-isopropyl-5-methoxyphenyl)-4-oxothiazolidin-2-ylidene)-3-(2-methyl-4-(1-(4-(trifluoromethoxy)phenyl)-1H-1,2,4-triazol-3-yl)phenethyl)urea] |  |  | 50 to 100% | pest or weed control at 50 µg/cm2 ([1]; Table ABC (FB)): 50 to 100%
CCc1ccccc1NC(=S)NC(=O)NCCc1ccc(-c2ncn(-c3ccc(OC(F)(F)F)cc3)n2)cc1C [FB5, 1-[(2-ethylphenyl)carbamothioyl]-3-[2-[2-methyl-4-[1-[4-(trifluoromethoxy)phenyl]-1H-1,2,4-triazol-3-yl]phenyl]ethyl]urea] |  |  | 50 to 100% | pest or weed control at 50 µg/cm2 ([1]; Table ABC (FB)): 50 to 100%
CCc1ccccc1N1C(=O)CS/C1=N\C(=O)NCCc1ccc(-c2ncn(-c3ccc(OC(F)(F)F)cc3)n2)cc1C [FB6, (Z)-1-(3-(2-ethylphenyl)-4-oxothiazolidin-2-ylidene)-3-(2-methyl-4-(1-(4-(trifluoromethoxy)phenyl)-1H-1,2,4-triazol-3-yl)phenethyl)urea] |  |  | 50 to 100% | pest or weed control at 50 µg/cm2 ([1]; Table ABC (FB)): 50 to 100%
Cc1cc(-c2ncn(-c3ccc(OC(F)(F)F)cc3)n2)ccc1CCNC(=O)/N=C1\SCC(=O)N1c1cc(Cl)ccc1C(C)C [FB7, (Z)-1-(3-(5-chloro-2-isopropylphenyl)-4-oxothiazolidin-2-ylidene)-3-(2-methyl-4-(1-(4-(trifluoromethoxy)phenyl)-1H-1,2,4-triazol-3-yl)phenethyl)urea] |  |  | 50 to 100% | pest or weed control at 50 µg/cm2 ([1]; Table ABC (FB)): 50 to 100%
Cc1ccc(NC(=S)NC(=O)NCCCCc2ccc(-c3ncn(-c4ccc(OC(F)(F)F)cc4)n3)cc2)c(C)c1 [FB16, 1-[(2,4-dimethylphenyl)carbamothioyl]-3-[4-[4-[1-[4-(trifluoromethoxy)phenyl]-1H-1,2,4-triazol-3-yl]phenyl]butyl]urea] |  |  | 50 to 100% | 
Cc1ccc(-n2c(C)cs/c2=N\C(=O)NCc2ccc(-c3ncn(-c4ccc(OC(F)(F)F)cc4)n3)cc2)c(C(C)C)c1 [P20, (Z)-1-(3-(2-isopropyl-4-methylphenyl)-4-methylthiazol-2(3H)-ylidene)-3-(4-(1-(4-(trifluoromethoxy)phenyl)-1H-1,2,4-triazol-3-yl)benzyl)urea] |  | 50 to 100% |  | 
Cc1ccc(C(C)C)c(N2C(=O)CS/C2=N\C(=O)NCCc2cccc(-c3ncn(-c4ccc(OC(F)(F)F)cc4)n3)c2)c1 [P81] |  | 50 to 100% |  | 
COc1ccc(NC(=S)NC(=O)NCCc2cccc(-c3ncn(-c4ccc(OC(F)(F)F)cc4)n3)c2)c(C)c1 [PC87, 1-[(4-methoxy-2-methyl-phenyl)carbamothioyl]-3-[2-[3-[1-[4-(trifluoromethoxy)phenyl]-1H-1,2,4-triazol-3-yl]phenyl]ethyl]urea] |  |  |  | pest or weed control at 50 µg/cm2 ([2]; Table ABC (PC)): 50 to 100%
CCCc1ccc(C)cc1NC(=S)NC(=O)NCCCc1ccc(-c2ncn(-c3ccc(OC(F)(F)F)cc3)n2)cc1 [PC99, 1-[(5-methyl-2-propyl-phenyl)carbamothioyl]-3-[3-[4-[1-[4-(trifluoromethoxy)phenyl]-1H-1,2,4-triazol-3-yl]phenyl]propyl]urea] |  |  |  | pest or weed control at 50 µg/cm2 ([1]; Table ABC (PC)): 50 to 100%
Cc1ccc(NC(=S)NC(=O)NCCCc2ccc(-c3ncn(-c4ccc(OC(F)(F)F)cc4)n3)cc2)c(C(C)C)c1 [PC102, 1-[(2-isopropyl-4-methyl-phenyl)carbamothioyl]-3-[3-[4-[1-[4-(trifluoromethoxy)phenyl]-1H-1,2,4-triazol-3-yl]phenyl]propyl]urea] |  |  |  | pest or weed control at 50 µg/cm2 ([1]; Table ABC (PC)): 50 to 100%
CC(C)c1cc(F)ccc1NC(=S)NC(=O)NCCCc1ccc(-c2ncn(-c3ccc(OC(F)(F)F)cc3)n2)cc1 [PC103, 1-[(4-fluoro-2-isopropyl-phenyl)carbamothioyl]-3-[3-[4-[1-[4-(trifluoromethoxy)phenyl]-1H-1,2,4-triazol-3-yl]phenyl]propyl]urea] |  |  |  | pest or weed control at 50 µg/cm2 ([1]; Table ABC (PC)): 0 to 50%
Cc1ccc(NC(=S)NC(=O)NCCCCc2cccc(-c3ncn(-c4ccc(OC(F)(F)F)cc4)n3)c2)c(C(C)C)c1 [PC180, 1-[(2-isopropyl-4-methyl-phenyl)carbamothioyl]-3-[4-[3-[1-[4-(trifluoromethoxy)phenyl]-1H-1,2,4-triazol-3-yl]phenyl]butyl]urea] |  |  |  | pest or weed control at 50 µg/cm2 ([1]; Table ABC (PC)): 0 to 50%
CC(C)c1cc(F)ccc1NC(=S)NC(=O)NCCCCc1cccc(-c2ncn(-c3ccc(OC(F)(F)F)cc3)n2)c1 [PC181, 1-[(4-fluoro-2-isopropyl-phenyl)carbamothioyl]-3-[4-[3-[1-[4-(trifluoromethoxy)phenyl]-1H-1,2,4-triazol-3-yl]phenyl]butyl]urea] |  |  |  | pest or weed control at 50 µg/cm2 ([1]; Table ABC (PC)): 0 to 50%
COc1ccc(C(C)C)c(NC(=S)NC(=O)NCCCCc2cccc(-c3ncn(-c4ccc(OC(F)(F)F)cc4)n3)c2)c1 [PC182, 1-[(2-isopropyl-5-methoxy-phenyl)carbamothioyl]-3-[4-[3-[1-[4-(trifluoromethoxy)phenyl]-1H-1,2,4-triazol-3-yl]phenyl]butyl]urea] |  |  |  | pest or weed control at 50 µg/cm2 ([2]; Table ABC (PC)): 50 to 100%
